Reference: PMC6728334 (Scientific Reports, 2019)
Entries after “also recorded” stand apart in the source; their conditions may differ. Read-outs that look alike come from different tables or passages of the source.

How the values were obtained:
[1] = system: ubiquitin-overexpressing HEK 293 cells; experiment: Cell survival in ubiquitin-overexpressing cells vs empty vector-transfected control cells; assay type: cell-based, human; conditions: 24-h treatment at IC50 of each compound (Myr 3 mM, DM 650 μM; puromycin 1 and 2 μM)
Description: (§1) HEK 293FT cells were evaluated for survival following compound treatments by the Alamar Blue (resazurin) assay. Cells were plated onto 96-well plates at 4.8 × 10^4 cells/well in 0.5% FBS-containing DMEM at 37 °C and 5% CO2. After 24 h, compounds were added. After 24-h treatment, resazurin was added to a final concentration of 0.12 mM. Following 4-h incubation, conversion to the resorufin product was measured (with excitation at 542 nm and emission at 590 nm) on a fluorescence plate reader.
(§2) HEK 293FT cells (1.5 × 10^6) were plated onto 6-cm plates in 5 ml of DMEM with 10% FBS and allowed to grow for 24 h at 37 °C and 5% CO2. For transfections, 6 μg of plasmid DNA (empty vector containing FLAG-tag sequence only, FLAG-Uba1, or FLAG-ubiquitin) and 10 μl of Lipofectamine 2000 were used for each plate. The DNA and the reagent were diluted separately in 500 μl of Opti-MEM (Gibco), and each was mixed by vortexing. After 5-min incubation, the two tubes were combined and incubated for another 20 min. Prior to adding the transfection solution to the cells, the medium was replaced with 4 ml of Opti-MEM. The transfection solution was then added dropwise. After 3-h incubation, the medium was changed to 0.5% FBS-containing DMEM, and the cells were plated for cell survival experiments, as above.

HEK 293FT cells [2] = experiment: Cell survival, Alamar Blue (resazurin) assay; assay type: cell-based, human; conditions: 24-h treatment; for IC50: 2% DMSO, read-out: IC50 for inhibition of cell survival
Description: For cellular experiments, HEK 293FT cells (a fast-growing SV40 large T antigen-transformed strain of HEK 293 cells designed for enhanced transgene expression in transient transfections) were grown in growth medium consisting of Dulbecco’s modified Eagle’s medium (DMEM; Sigma-Aldrich), supplemented with 10% fetal bovine serum (FBS; Gibco) in a humified cell culture incubator at 37 °C with 5% CO2.
as §1

[3] = system: Uba1-overexpressing HEK 293 cells; experiment: Cell survival in Uba1-overexpressing cells vs empty vector-transfected control cells; assay type: cell-based, human; conditions: 24-h treatment at IC50 of each compound (Myr 3 mM, DM 650 μM; puromycin 1 and 2 μM)
Description: as §1, §2

HEK 293FT cells [4] = experiment: Cellular global ubiquitination with MG132, anti-ubiquitin Western blot; assay type: cell-based, human; conditions: EGCG 250 and 500 μM, 1 h total; MG132 50 μM for 30 min
Description: HEK 293FT cells were plated in 6-well plates at 8 × 10^5 cells/well in DMEM with 0.5% FBS. […] Cells were harvested, and whole-cell lysates were prepared in RIPA lysis buffer containing protease inhibitor cocktail ([…] from Sigma-Aldrich) and sonicated. Equivalent loadings of total protein for each treatment, as determined by Bradford assay of each extract sample, were subjected to electrophoresis on 8% SDS-polyacrylamide gels and Western blot analysis, probed with anti-ubiquitin antibody, then stripped and reprobed with anti-β-tubulin antibody.

[5] = system: PCNA ubiquitination (RFC, Uba1, Rad6, Rad18, PCNA, ubiquitin); experiment: Reconstituted PCNA ubiquitination cascade, Western blot quantitation; assay type: biochemical, human
Description: The PCNA loading and ubiquitination cascade was reconstituted in 96-well white round-bottom polypropylene plates (Greiner) in a buffer consisting of 40 mM Tris-HCl, pH 7.5, 8 mM MgCl2, and 10% glycerol with 2.5 nM nicked circular pUC19, 50 nM RFC, 50 nM Uba1, 250 nM Rad6–Rad18 dimer, 50 nM FLAG-PCNA, and 250 nM biotin-ubiquitin (final concentrations). Compounds were added to the samples, with preincubation for 15 min at 25 °C before addition of ATP to a final concentration of 2 mM (to initiate the reaction cascade), followed by incubation for 2 h at 25 °C. The reactions were then terminated by addition of EDTA to 20 mM for Alpha assays or Laemmli sample buffer for Western blot analyses. For Alpha assays, reaction mixtures were diluted in buffer containing streptavidin-conjugated donor beads and anti-FLAG antibody-conjugated acceptor beads in opaque white microplates under low-light conditions, as recommended by the Alpha bead manufacturer, PerkinElmer. The plates were read on a Tecan Spark microplate reader at 23 °C. For Western blot analyses, FLAG-PCNA was detected with anti-FLAG antibody, and quantitations from the Western blot images was performed with NIH ImageJ software[74] and then analyzed with GraphPad Prism software.

Uba1 [6] = target: T1, Uba1 (Homo sapiens, UniProt P22314); experiment: Reversibility: Uba1 preincubation, washout by centrifugal filtration, then PCNA ubiquitination; assay type: biochemical; conditions: 30 μM compound preincubated with Uba1 for 2 h, then washed out
T1 construct: His; host or cells: E. coli BL21(DE3)
T1 sequence (P22314 1-1058): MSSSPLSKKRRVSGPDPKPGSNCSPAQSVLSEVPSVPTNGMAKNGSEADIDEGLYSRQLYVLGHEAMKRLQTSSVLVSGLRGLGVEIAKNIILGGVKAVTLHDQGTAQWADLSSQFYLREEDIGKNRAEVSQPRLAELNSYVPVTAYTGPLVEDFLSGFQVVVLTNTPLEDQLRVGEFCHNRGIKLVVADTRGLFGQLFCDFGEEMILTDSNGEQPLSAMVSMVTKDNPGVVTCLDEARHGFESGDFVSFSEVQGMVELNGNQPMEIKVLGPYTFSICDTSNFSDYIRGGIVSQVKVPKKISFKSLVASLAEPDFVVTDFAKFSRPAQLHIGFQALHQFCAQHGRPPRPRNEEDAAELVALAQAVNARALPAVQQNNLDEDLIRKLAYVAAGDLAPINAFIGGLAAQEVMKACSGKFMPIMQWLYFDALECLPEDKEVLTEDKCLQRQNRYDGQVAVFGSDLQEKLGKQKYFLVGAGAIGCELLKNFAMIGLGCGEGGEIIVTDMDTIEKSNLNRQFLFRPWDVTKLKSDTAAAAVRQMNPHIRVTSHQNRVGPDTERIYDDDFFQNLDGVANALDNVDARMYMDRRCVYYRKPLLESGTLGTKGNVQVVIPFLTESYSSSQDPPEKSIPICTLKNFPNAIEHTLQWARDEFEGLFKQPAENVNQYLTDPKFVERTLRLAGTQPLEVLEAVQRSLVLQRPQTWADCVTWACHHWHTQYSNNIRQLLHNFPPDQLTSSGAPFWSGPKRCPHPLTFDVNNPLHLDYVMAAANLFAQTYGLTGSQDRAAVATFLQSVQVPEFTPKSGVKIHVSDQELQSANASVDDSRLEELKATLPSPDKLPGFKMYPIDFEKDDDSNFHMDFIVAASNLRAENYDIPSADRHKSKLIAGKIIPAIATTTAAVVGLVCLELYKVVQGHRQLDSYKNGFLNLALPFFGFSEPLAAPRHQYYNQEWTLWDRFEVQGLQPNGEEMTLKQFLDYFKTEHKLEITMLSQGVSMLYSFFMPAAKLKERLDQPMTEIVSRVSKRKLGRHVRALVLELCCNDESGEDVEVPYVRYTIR
Description: Samples were then transferred to YM-30 Microcon centrifugal concentrators (Merck Millipore), diluted in buffer (40 mM Tris-HCl, pH 7.5, 8 mM MgCl2, and 10% glycerol), then serially centrifuged with additions of buffer to the remaining retentate between each spin, for final dilutions of compounds to <0.05% of original concentrations. The resulting samples were then tested in PCNA ubiquitination reactions.

Rad6 = target: T2, Rad6 (Homo sapiens, UniProt P63146); experiment: Rad6~ubiquitin thioester formation by transfer from already formed Uba1~ubiquitin; assay type: biochemical; conditions: Rad6 preincubated with compound 15 min; 2% DMSO
T2 construct: FLAG; made in house
T2 sequence (P63146 whole entry): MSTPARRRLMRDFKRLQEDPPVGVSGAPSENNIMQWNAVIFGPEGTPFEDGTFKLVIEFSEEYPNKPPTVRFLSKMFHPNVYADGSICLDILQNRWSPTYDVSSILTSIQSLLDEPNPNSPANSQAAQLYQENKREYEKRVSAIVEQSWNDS
Description: The overall reaction was conducted in two separate steps: initial reaction of Uba1 with ubiquitin in the absence of compound, then mixing with Rad6 with compound to evaluate transfer of ubiquitin from already formed Uba1~ubiquitin to Rad6. The first reaction was conducted with 300 nM Uba1, 1 μM GST-ubiquitin, and 2 mM ATP in a buffer of 40 mM Tris-HCl, pH 7.5, 8 mM MgCl2, and 10% glycerol for 30 min at 25 °C to allow for charging of Uba1 with GST-ubiquitin incubations. […] The samples were then subjected to SDS-polyacrylamide gel electrophoresis under non-reducing conditions, silver staining, and quantitation of scanned images, as described above for the silver-staining-based Uba1~ubiquitin thioester formation assay.

Uba1 [7] = target: T1, Uba1; experiment: Uba1~ubiquitin thioester formation (Uba1, GST-ubiquitin, ATP; silver-stained gels); assay type: biochemical

## O=C(O[C@@H]1Cc2c(O)cc(O)cc2O[C@@H]1c1cc(O)c(O)c(O)c1)c1cc(O)c(O)c(O)c1 [EGCG, (–)-Epigallocatechin-3-gallate]
[1]
  Effect of ubiquitin overexpression on cell survival: reduced sensitivity; also recorded: Protects
HEK 293FT cells [2]
  Activity on cell viability / survival (in words): reduces the viability and growth; also recorded: inhibitory
  IC50: 220 µM
HEK 293FT cells [2]; Homo sapiens, HEK293FT, 24 h
  IC50: 220 µM
[3]
  Effect of Uba1 overexpression on cell survival: reduced sensitivity; also recorded: Protects
HEK 293FT cells [4]
  Accumulation of ubiquitin-conjugated protein species in response to MG132 (global cellular ubiquitination): inhibited
[5]; 15 min preincubation, 2 h with ATP, 2% DMSO, nonlinear regression, read-out: IC50 for inhibition of PCNA ubiquitination
  IC50: 0.228 µM
[5]; up to 500 μM
  Activity in the PCNA ubiquitination assay (in words): inhibitory
Uba1 [6]
  Reversibility of inhibition of Uba1 and PCNA ubiquitination after washout: reversible
Rad6
  Formation of the Rad6~ubiquitin thioester conjugate: does not inhibit
Uba1 [7]; EGCG 10 μM, Myr 50 μM
  Uba1~ubiquitin thioester formation, Uba1 alone preincubated with compound before ubiquitin and ATP: complete inhibition
  Uba1~ubiquitin thioester formation, ubiquitin alone preincubated with compound before Uba1 and ATP: did not
Uba1 [7]; up to 500 μM
  Activity in the Uba1~ubiquitin thioester formation assay (in words): inhibitory
